{
  "source": "patent US10632127B2",
  "about": "“Targeted notch pathway inhibitors” (Hoffmann-La Roche Inc., priority 2015, dated 2020)",
  "key": {"[1]": {"molecular_target": "Notch signal transduction pathway", "test": "In vitro Notch signal transduction pathway activity assay (DR215/F2 luciferase reporter)", "type": "cell-based, human", "conditions": "for IC50 for blockade of the Notch pathway, range in words: DR215/F2 cell reporter assay; for IC50: Homo sapiens, 215/F2 reporter cell line, 19 h, mean of at least 3 experiments", "protocol": "The compounds were dissolved in dimethyl sulfoxide (DMSO) at 10 mM stock solution, aliquoted and stored at −4° C. until use, then diluted in PBS or cell culture medium. In the experimental settings, controls containing increasing concentrations of DMSO, corresponding to the amount of DMSO of the diluted compounds were always included. For in vivo experiments, the compounds were dissolved in 0.9% NaCl, incubated 30 min at 40° C. and sonicated for 5 min.\nThe requirement of proteolytic activation of the prodrugs to inhibit Notch cleavage by the γ-secretase, was investigated using a reporter assay (Table 3). The DR215/F2 cell line expresses a reporter construct designed to monitor the activity of the Notch signal transduction pathway. The DR215/F2 cell line 39 carries two transgenes: the firefly luciferase reporter gene expressed under the control of the Gal4 promoter and the human Notch1 activator gene fused with the yeast Gal4 transcription factor. This assay confirmed that the prodrugs were able to inhibit γ-secretase and the activation of the Notch pathway. The DR215/F2 cell reporter assay was also used to determine the IC50 for blockade of the Notch pathway by all the compounds designed and prepared.\nThe values were determined using the 215/F2 reporter cell line for Notch activation by the γ-secretase. All values are the mean of at least 3 experiments.\nThe preparation and characterization of rat brain-derived EC219 endothelial cells have been described in Juillerat-Jeanneret, L. et al. In Vitro Cell. Dev. Biol. 1992, 28A, 537-543. These cells express high levels of APA and γ-GT activities and can be used for determining kinetics in living cells, and were chosen as APA- and γ-GT-positive representative cell models. EC219 cells were grown in DMEM medium containing 1 g/l glucose, 10% heat-inactivated fetal calf serum (FCS, EuroClone, UK) supplemented with 100 U/mL penicillin and 100 μg/mL streptomycin (P/S) on uncoated cell culture plastic ware. The HEK293 and HK2 human kidney cells are available from the ATCC (American Tissue Culture Collection, Manassas, Va., USA). HEK293 cells were grown on uncoated cell culture plastic ware in Iscove modified Dulbecco medium (IMDM, Life Technologies) containing 10% FCS and P/S. HK2 cells were grown on uncoated cell culture plastic ware in DMEM/F-12 GlutaMAX medium (Gibco) containing 5% FCS, P/S, 1% ITS (1.0 mg/ml bovine insulin, 0.55 mg/ml human transferrin and 0.5 μg/ml sodium selenite, Sigma-Aldrich) and 5 ng/ml hydrocortisone. The human HEK293-derived DR215/F2 embryonic kidney cell line, stably transfected with pFR Luc and APP-Notch Gal (plasmid DR215) as described in WO 2006/061136 A2 and Brockhaus, M. Neuroreport 1998 9, 1481-1486, were maintained using IMDM with 10% FCS supplemented with P/S and kept under double-selection with 150 μg/ml G-418 and 50 μg/ml hygromycin B on coated (1:100 Poly-L-lysine) cell culture plastic ware. In this assay, the Notch-Gal4 protein is bound to the cell membrane via its trans-membrane domain. The Notch intracellular domain is released by proteolytic cleavage mediated by the γ-secretase and moves to the cell nucleus where it activates the reporter luciferase gene transcript. Inhibition of γ-secretase thus decreases luciferase activity. Briefly, cultures were grown in 96-well microplates to 80% confluence; the cells were then washed in PBS and exposed to decreasing concentrations of the γ-secretase-inhibitor analogues in complete IMDM culture medium without red phenol at 37° C. for 19 h. Then 75 μl of supernatant from each well was removed and the luciferase activity was determined by adding 25 μl of Steady-Glo luciferase assay reagent (Promega)."}, "[2]": {"test": "Distribution in plasma, liver and kidney in the aristolochic acid mouse model (repeated i.p.)", "type": "in vivo", "conditions": "for concentration at 13 h: male, C57BL/6, mouse, ip", "protocol": "For PK evaluation, the compounds were administered i.p to male C57BL/6 mice in suspension (gelatine/saline 7.5%/0.62% in water) using an administration volume of 4 mL/kg. Blood samples were collected in tubes containing EDTA, plasma was separated by centrifugation and stored at −80° C. Liver and kidney samples (˜100 mg aliquots) were homogenized in three volumes of water using Precellys tissue homogenization tubes (precellys.com). 25 μL of each tissue homogenate was further diluted with 25 μL blank plasma to produce the final tissue homogenate for extraction. All samples were analyzed using protein precipitation followed by LC-MS/MS analysis. Briefly, 50 μL plasma or final tissue homogenate were mixed with 50 μL 0.5M HClO4/acetonitrile 9/1 (containing 200 ng/mL internal standard bosentan). Samples were stirred and 300 μL water was added followed by centrifugation at 5600 rpm (4° C., 10 min). 10 μL supernatant was analyzed by LC/MS analysis. Calibration standards in plasma were prepared the same way. The LC column and conditions used were: Phenomenex, Polar RP, 4 μm, 50×2.1 mm at 0.4 mL/min flow rate with a 3 min gradient from 95% solvent A to 95% solvent B (Solvent A: Water/ACN/HCOOH, 90:10:0.1+10 mM NH4 formate; Solvent B: Water/ACN/HCOOH, 10:90:0.1+10 mM NH4 formate). Mass spectrometric conditions were: Thermo TSQ Vantage with positive heated electrospray ionization in MS/MS mode. Compounds mass transitions monitored were m/z 320.7 to 119.9. PK parameters for all studies were calculated using Phoenix WinNonlin Software.\nAll experiments with animals were conducted in accordance with federal and local regulation at the respective study location. Kidney injury was induced by intraperitoneal (i.p). injection of aristolochic acid (AA, Sigma-Aldrich, 1×5 mg/kg) in 10 weeks old BALB/c male mice. The γ-secretase inhibitors prodrugs were diluted in NaCl 0.9% and administered i.p., starting one day before the injection of AA (day −1) and then twice daily until day 6 evening (n=5 mice/experimental group). […] The kidneys were cut in four fragments. One fragment was immediately frozen in liquid nitrogen, one fragment was included in OCT (Tissue-Tek, VWR International, Switzerland) and frozen, one fragment was frozen at −80° C. and one fragment was fixed in 4% paraformaldehyde and included in paraffin.\nTo investigate potential nephroprotective effects of Notch blockade using γ-secretase inhibition and to evaluate the effects of our enzyme-targeted prodrug strategy, we used the in vivo AA mouse model of acute renal tubular damage. […]\nPlasma and tissue concentrations of administered compound (Table 6A-C) and formed free γ-secretase inhibitor (8) (Table 6A) or amine-SecrI (11a) (Table 6B-C) were determined following 8-day repeated i.p. administration at 10 mg/kg b.i.d. (Table 6A) or 30 mg/kg b.i.d. […] Numbers in parentheses represent relative amounts with the exposure of 11a in kidney arbitrarily set at each time point to 100%. […] BQL=below quantifiable limit."}, "[3]": {"conditions": "AA-exposed mice, 11a 10 mg/kg b.i.d. i.p. repeated, 13 h"}, "[4]": {"conditions": "AA-exposed mice, 13a 30 mg/kg b.i.d. i.p. repeated, 13 h"}, "[5]": {"conditions": "mice, 13a 30 mg/kg b.i.d. i.p. repeated, without AA (Table 6B), 13 h"}},
  "note": "Like-named read-outs stand apart in the source and are kept apart here.",
  "data": [
    {"compound": "C[C@H]1Oc2ccc(F)cc2N(CCO)C(=O)[C@H]1NC(=O)[C@@](C)(O)C(=O)NCC(F)(F)C(F)(F)F", "note": "[Compound 8, N-[(6R,7S)-2-Fluoro-9-(2-hydroxy-ethyl)-6-methyl-8-oxo-6,7,8,9-tetrahydro-5-oxa-9-aza-benzocyclohepten-7-yl]-2-(S)-hydroxy-2-methyl-N′-(2,2,3,3,3-pentafluoro-propyl)-malonamide]", "values": [
      {"measurement": "IC50 for blockade of the Notch pathway, range in words", "setting": "[1]", "result": "low nanomolar range"},
      {"measurement": "IC50", "setting": "[1]", "result": 4.4, "unit": "nM"},
      {"measurement": "Plasma concentration of formed 8", "setting": "[2]; [3]", "result": "BQL"}
    ]},
    {"compound": "C[C@H]1Oc2ccc(F)cc2N(CCOC(=O)NCCN)C(=O)[C@H]1NC(=O)[C@@](C)(O)C(=O)NCC(F)(F)C(F)(F)F.Cl", "note": "[Compound 11a, 2-((2R,3S)-7-Fluoro-3-((S)-2-hydroxy-2-methyl-3-oxo-3-(2,2,3,3,3-pentafluoropropylamino)propanamido)-2-methyl-4-oxo-3,4-dihydrobenzo[b][1,4]oxazepin-5(2H)-yl)ethyl 2-aminoethylcarbamate hydrochloride]", "values": [
      {"measurement": "IC50 for blockade of the Notch pathway, range in words", "setting": "[1]", "result": "low nanomolar range"},
      {"measurement": "IC50", "setting": "[1]", "result": 45.6, "unit": "nM"},
      {"measurement": "exposure of amine-SecrI (11a) in the Ac-γ-Glu-SecrI (13a) group, in words", "setting": "[2]; 13a 30 mg/kg b.i.d., 12 h post administration, compared with 11a group", "result": "comparatively lower exposure"},
      {"measurement": "exposure of kidney and liver with amine-SecrI (11a), in words", "setting": "[2]; AA model, 11a 10 mg/kg b.i.d., 12 h post administration", "result": "high exposure of kidney and liver"},
      {"measurement": "11a in kidney, relative amount (arbitrarily set to 100%)", "setting": "[2]; [3]", "result": "(100) %"},
      {"measurement": "11a in liver, relative amount (11a in kidney = 100%)", "setting": "[2]; [3]", "result": 68, "unit": "%"},
      {"measurement": "Plasma concentration of formed 11a", "setting": "[2]; [4]", "result": "BQL"},
      {"measurement": "concentration at 13 h", "setting": "[2]; kidney, 10 mg/kg, AA-exposed mice, 11a 10 mg/kg b.i.d. i.p. repeated, 13 h, read-out: Kidney concentration of 11a", "result": 1830, "unit": "ng/g"},
      {"measurement": "concentration at 13 h", "setting": "[2]; liver, 10 mg/kg, AA-exposed mice, 11a 10 mg/kg b.i.d. i.p. repeated, 13 h, read-out: Liver concentration of 11a", "result": 1250, "unit": "ng/g"},
      {"measurement": "concentration at 13 h", "setting": "[2]; plasma, 10 mg/kg, AA-exposed mice, 11a 10 mg/kg b.i.d. i.p. repeated, 13 h, read-out: Plasma concentration of 11a", "result": 7.2, "unit": "ng/mL"},
      {"measurement": "Liver concentration of formed 11a", "setting": "[2]; [5]", "result": "BQL"},
      {"measurement": "Plasma concentration of formed 11a", "setting": "[2]; [5]", "result": "BQL"}
    ]},
    {"compound": "CC(=O)N[C@@H](CCC(=O)NCCNC(=O)OCCN1C(=O)[C@@H](NC(=O)[C@@](C)(O)C(=O)NCC(F)(F)C(F)(F)F)[C@@H](C)Oc2ccc(F)cc21)C(=O)O", "note": "[Compound 13a, (S)-2-acetamido-5-(2-((2-((2R,3S)-7-fluoro-3-((S)-2-hydroxy-2-methyl-3-oxo-3-(2,2,3,3,3-pentafluoropropylamino)propanamido)-2-methyl-4-oxo-3,4-dihydrobenzo[b][1,4]oxazepin-5(2H)-yl)ethoxy)carbonylamino)ethylamino)-5-oxopentanoic acid]", "values": [
      {"measurement": "IC50 for blockade of the Notch pathway, range in words", "setting": "[1]", "result": "μM range"},
      {"measurement": "IC50", "setting": "[1]", "result": 2880, "unit": "nM"},
      {"measurement": "Plasma concentration of 13a", "setting": "[2]; [4]", "result": "BQL"},
      {"measurement": "concentration at 13 h", "setting": "[2]; kidney, 30 mg/kg, AA-exposed mice, 13a 30 mg/kg b.i.d. i.p. repeated, 13 h, read-out: Kidney concentration of 13a", "result": 23, "unit": "ng/g"},
      {"measurement": "concentration at 13 h", "setting": "[2]; kidney, 30 mg/kg, mice, 13a 30 mg/kg b.i.d. i.p. repeated, without AA (Table 6B), 13 h, read-out: Kidney concentration of 13a", "result": 11, "unit": "ng/g"},
      {"measurement": "concentration at 13 h", "setting": "[2]; liver, 30 mg/kg, AA-exposed mice, 13a 30 mg/kg b.i.d. i.p. repeated, 13 h, read-out: Liver concentration of 13a", "result": 155, "unit": "ng/g"},
      {"measurement": "concentration at 13 h", "setting": "[2]; liver, 30 mg/kg, mice, 13a 30 mg/kg b.i.d. i.p. repeated, without AA (Table 6B), 13 h, read-out: Liver concentration of 13a", "result": 19, "unit": "ng/g"},
      {"measurement": "concentration at 13 h", "setting": "[2]; plasma, 30 mg/kg, mice, 13a 30 mg/kg b.i.d. i.p. repeated, without AA (Table 6B), 13 h, read-out: Plasma concentration of 13a", "result": 6, "unit": "ng/mL"}
    ]},
    {"compound": "CC(=O)N[C@@H](CCC(=O)O)C(=O)NCCNC(=O)OCCN1C(=O)[C@@H](NC(=O)[C@@](C)(O)C(=O)NCC(F)(F)C(F)(F)F)[C@@H](C)Oc2ccc(F)cc21", "note": "[Compound 15a, (S)-4-acetamido-5-(2-((2-((2R,3S)-7-fluoro-3-((S)-2-hydroxy-2-methyl-3-oxo-3-(2,2,3,3,3-pentafluoropropylamino)propanamido)-2-methyl-4-oxo-3,4-dihydrobenzo[b][1,4]oxazepin-5(2H)-yl)ethoxy)carbonylamino)ethylamino)-5-oxopentanoic acid]", "values": [
      {"measurement": "IC50 for blockade of the Notch pathway, range in words", "setting": "[1]", "result": "high nM range"},
      {"measurement": "IC50", "setting": "[1]", "result": 625, "unit": "nM"}
    ]}
  ]
}
